tested on: RSV strain A2; experiment: RSV antiviral cytoprotection assay in Hep2 cells (RSV-induced cytopathic effect, Cell TiterGlo); format: cell-based, Respiratory Syncytial Virus (RSV); details: human respiratory syncytial virus, HEp-2, 0.5 μM compound; RSV A2-infected Hep2 cells; % inhibition calculated from 4-parameter dose response curve, normalized to 0% and 100%; read-out: Percent inhibition at 0.5 μM
Experimental: Antiviral activity against RSV was determined using an in vitro cytoprotection assay in Hep2 cells. […] The method used was similar to methods previously described in published literature (Chapman et al., Antimicrob Agents Chemother. 2007, 51(9):3346-53.)
Hep2 cells were obtained from ATCC (Manassas, VI) and maintained in MEM media supplemented with 10% fetal bovine serum and penicillin/streptomycin. Cells were passaged twice a week and kept at subconfluent stage. Commercial stock of RSV strain A2 (Advanced Biotechnologies, Columbia, Md.) was titered before compound testing to determine the appropriate dilution of the virus stock that generated desirable cytopathic effect in Hep2 cells.
For antiviral tests, Hep2 cells were seeded into 96-well plates 24 hours before the assay at a density of 3,000 cells/well. On a separate 96 well plate, compounds to be tested were serially diluted in cell culture media. Eight concentrations in 3-fold serial dilution increments were prepared for each tested compound and 100 uL/well of each dilution was transferred in duplicate onto plates with seeded Hep2 cells. Subsequently, appropriate dilution of virus stock previously determined by titration was prepared in cell culture media and 100 uL/well was added to test plates containing cells and serially diluted compounds. Each plate included three wells of infected untreated cells and three wells of uninfected cells that served as 0% and 100% virus inhibition control, respectively. Following the infection with RSV, testing plates were incubated for 4 days in a tissue culture incubator. After the incubation, RSV-induced cytopathic effect was determined using a Cell TiterGlo reagent (Promega, Madison, Wis.) followed by a luminescence read-out. The percentage inhibition was calculated for each tested concentration relative to the 0% and 100% inhibition controls and the EC50 value for each compound was determined by non-linear regression as a concentration inhibiting the RSV-induced cytopathic effect by 50%. Ribavirin (purchased from Sigma, St. Louis, Mo.) was used as a positive control for antiviral activity.
Compounds were also tested for antiviral activity against RSV in Hep2 cells using a 384 well format. Compounds were diluted in DMSO using a 10-step serial dilution in 3-fold increments via automation in 4 adjacent replicates each. Eight compounds were tested per dilution plate. 0.4 uL of diluted compounds were then stamped via Biomek into 384-well plates (Nunc 142761 or 164730 w/lid 264616) containing 20 μL of media (Mediatech Inc. MEM supplemented with Glutamine, 10% FBS and Pen/Strep). DMSO and a suitable positive control compound, such as 80 μM GS-329467 or 10 μM 427346 was used for the 100% and 0% cell killing controls, respectively.
Hep2 cells (1.0×10^5 cells/ml) were prepared as above in batch to at least 40 mls excess of the number of sample plates (8 mls cell mix per plate) and infected with vendor supplied (ABI) RSV strain A2 to arrive at an MOI of 1:1000 (virus:cell #) or 1:3000 (vol virus: cell vol). Immediately after addition of virus, the RSV infected Hep2 cell suspension was added to each stamped 384-well plate at 20 μl per well using a uFlow dispenser, giving a final volume of 40 μL/well, each with 2000 infected cells. The plates were then incubated for 5 days at 37° C. and 5% CO2. Following incubation, the plates were equilibrated to room temperature in a biosafety cabinet hood for 1.5 hrs and 40 μL of Cell-Titer Glo viability reagent (Promega) was added to each well via uFlow. Following a10-20 minute incubation, the plates were read using an EnVision or Victor Luminescence plate reader (Perkin-Elmer). The data was then uploaded and analyzed on the Bioinformatics portal under the RSV Cell Infectivity and 8-plate EC50-Hep2-384 or 8-plate EC50-Hep2-Envision protocols. […]

Structure (SMILES) | inhibition at 0.5 µM
Cc1cn2nc([C@@H]3CCCCN3C(=O)c3[nH]c4c(C)ccc(C)c4c3C)cc2nc1N1CC[C@H](N)C1 [Compound 53] | 25%
Cc1cn2nc([C@@H]3CCCCN3C(=O)c3cccc4ccnn34)cc2nc1N1CC[C@H](N)C1 [Compound 54] | 100%
Cc1cc(C)n2c(C(=O)N3CCCC[C@H]3c3cc4nc(N5CC[C@H](N)C5)c(C)cn4n3)nnc2n1 [Compound 55] | 5%
Cc1cn2nc([C@@H]3CCCCN3C(=O)c3c(Cl)nc4ccccn34)cc2nc1N1CC[C@H](N)C1 [Compound 56] | 84%
Cc1cn2nc([C@@H]3CCCCN3C(=O)c3cc4c(OC(F)F)cccc4[nH]3)cc2nc1N1CC[C@H](N)C1 [Compound 57] | 13%
Cc1ccc(S(C)(=O)=O)cc1C(=O)N1CCCC[C@H]1c1cc2nc(N3CC[C@H](N)C3)c(C)cn2n1 [Compound 58] | 61%
Cc1ccc(S(N)(=O)=O)cc1C(=O)N1CCCC[C@H]1c1cc2nc(N3CC[C@H](N)C3)c(C)cn2n1 [Compound 59] | 52%
Cc1cn2nc([C@@H]3CCCCN3C(=O)c3cccc4c3CCCN4)cc2nc1N1CC[C@H](N)C1 [Compound 60] | 100%
Cc1cn2nc([C@@H]3CCCCN3C(=O)c3cccc4c3OCO4)cc2nc1N1CC[C@H](N)C1 [Compound 61] | 100%
Cc1cn2nc([C@@H]3CCCCN3C(=O)c3cc(F)cc4nc(C)c(C)nc34)cc2nc1N1CC[C@H](N)C1 [Compound 62] | 11%
Cc1cn2nc([C@@H]3CCCCN3C(=O)c3cc(Cl)ccc3OC(C)C)cc2nc1N1CC[C@H](N)C1 [Compound 63] | 100%
Cc1cc(C(=O)N2CCCC[C@H]2c2cc3nc(N4CC[C@H](N)C4)c(C)cn3n2)c2[nH]ncc2c1 [Compound 64] | 100%
Cc1cn2nc([C@@H]3CCCCN3C(=O)c3cccc4c3OCC(=O)N4)cc2nc1N1CC[C@H](N)C1 [Compound 65] | 97%
Cc1cn2nc([C@@H]3CCCCN3C(=O)c3ccccc3OC3CCCC3)cc2nc1N1CC[C@H](N)C1 [Compound 66] | 95%
CCS(=O)(=O)c1ccc(F)c(C(=O)N2CCCC[C@H]2c2cc3nc(N4CC[C@H](N)C4)c(C)cn3n2)c1 [Compound 67] | 21%
Cc1cn2nc([C@@H]3CCCCN3C(=O)c3ccc4ncccc4c3)cc2nc1N1CC[C@H](N)C1 [Compound 68] | 37%
Cc1cn2nc([C@@H]3CCCCN3C(=O)c3ccccc3Cl)cc2nc1N1CC[C@H](N)C1 [Compound 69] | 100%
Cc1cn2nc([C@@H]3CCCCN3C(=O)c3cccc(CO)n3)cc2nc1N1CC[C@H](N)C1 [Compound 70] | 56%
Cc1cn2nc([C@@H]3CCCCN3C(=O)c3ncccc3F)cc2nc1N1CC[C@H](N)C1 [Compound 71] | 98%
Cc1cn2nc([C@@H]3CCCCN3C(=O)c3ccc(F)c(F)c3C)cc2nc1N1CC[C@H](N)C1 [Compound 72] | 100%
Cc1cn2nc([C@@H]3CCCCN3C(=O)c3ccc(F)cc3F)cc2nc1N1CC[C@H](N)C1 [Compound 73] | 99%
Cc1cn2nc([C@@H]3CCCCN3C(=O)c3nc(Cl)ccc3Cl)cc2nc1N1CC[C@H](N)C1 [Compound 74] | 100%
Cc1cc(F)c(F)cc1C(=O)N1CCCC[C@H]1c1cc2nc(N3CC[C@H](N)C3)c(C)cn2n1 [Compound 75] | 100%
Cc1cn2nc([C@@H]3CCCCN3C(=O)c3ncccc3Br)cc2nc1N1CC[C@H](N)C1 [Compound 76] | 99%
Cc1cc(F)ccc1C(=O)N1CCCC[C@H]1c1cc2nc(N3CC[C@H](N)C3)c(C)cn2n1 [Compound 77] | 100%
Cc1ccc(F)cc1C(=O)N1CCCC[C@H]1c1cc2nc(N3CC[C@H](N)C3)c(C)cn2n1 [Compound 78] | 100%

Structure (SMILES) | inhibition at 0.5 µM
Cc1cn2nc([C@@H]3CCCCN3C(=O)c3c(F)cccc3F)cc2nc1N1CC[C@H](N)C1 [Compound 79] | 100%
Cc1cn2nc([C@@H]3CCCCN3C(=O)c3cccc(-c4ccccc4)n3)cc2nc1N1CC[C@H](N)C1 [Compound 80] | 14%
Cc1cn2nc([C@@H]3CCCCN3C(=O)c3cccc(F)n3)cc2nc1N1CC[C@H](N)C1 [Compound 81] | 96%
Cc1cn2nc([C@@H]3CCCCN3C(=O)c3c(F)cccc3Cl)cc2nc1N1CC[C@H](N)C1 [Compound 82] | 100%
Cc1cn2nc([C@@H]3CCCCN3C(=O)c3cc(Cl)ccn3)cc2nc1N1CC[C@H](N)C1 [Compound 83] | 99%
COc1cccc(C(=O)N2CCCC[C@H]2c2cc3nc(N4CC[C@H](N)C4)c(C)cn3n2)c1C [Compound 84] | 100%
COc1cc(C)c(C(=O)N2CCCC[C@H]2c2cc3nc(N4CC[C@H](N)C4)c(C)cn3n2)cc1C [Compound 85] | 100%
Cc1cn2nc([C@@H]3CCCCN3C(=O)c3cc(C(F)(F)F)ccn3)cc2nc1N1CC[C@H](N)C1 [Compound 86] | 80%
Cc1cn2nc([C@@H]3CCCCN3C(=O)c3cccc(C)c3C)cc2nc1N1CC[C@H](N)C1 [Compound 87] | 100%
Cc1cn2nc([C@@H]3CCCCN3C(=O)c3c(C)cccc3C)cc2nc1N1CC[C@H](N)C1 [Compound 88] | 100%
Cc1ccc(Cl)c(C(=O)N2CCCC[C@H]2c2cc3nc(N4CC[C@H](N)C4)c(C)cn3n2)c1 [Compound 89] | 100%
Cc1ccc(Br)c(C(=O)N2CCCC[C@H]2c2cc3nc(N4CC[C@H](N)C4)c(C)cn3n2)c1 [Compound 90] | 100%
COc1cc(C)ccc1C(=O)N1CCCC[C@H]1c1cc2nc(N3CC[C@H](N)C3)c(C)cn2n1 [Compound 92] | 100%
Cc1cn2nc([C@@H]3CCCCN3C(=O)c3ccc(Cl)cn3)cc2nc1N1CC[C@H](N)C1 [Compound 93] | 44%
COc1cc2ccccc2cc1C(=O)N1CCCC[C@H]1c1cc2nc(N3CC[C@H](N)C3)c(C)cn2n1 [Compound 94] | 88%
Cc1cnc2c(C(=O)N3CCCC[C@H]3c3cc4nc(N5CC[C@H](N)C5)c(C)cn4n3)c(Cl)ccc2c1 [Compound 95] | 21%
Cc1cn2nc([C@@H]3CCCCN3C(=O)c3ccc4ccccc4n3)cc2nc1N1CC[C@H](N)C1 [Compound 96] | 65%
COc1ccc2ccccc2c1C(=O)N1CCCC[C@H]1c1cc2nc(N3CC[C@H](N)C3)c(C)cn2n1 [Compound 97] | 100%
Cc1cn2nc([C@@H]3CCCCN3C(=O)c3cccc4c3cnn4C)cc2nc1N1CC[C@H](N)C1 [Compound 98] | 97%
Cc1cn2nc([C@@H]3CCCCN3C(=O)c3csc4ccc(Br)cc34)cc2nc1N1CC[C@H](N)C1 [Compound 99] | 100%
Cc1cn2nc([C@@H]3CCCCN3C(=O)c3cc(Cl)cc(Cl)n3)cc2nc1N1CC[C@H](N)C1 [Compound 100] | 100%
Cc1cn2nc([C@@H]3CCCCN3C(=O)c3cn4ncccc4n3)cc2nc1N1CC[C@H](N)C1 [Compound 101] | 16%
Cc1cn2nc([C@@H]3CCCCN3C(=O)c3ccc(-n4cncn4)cc3Cl)cc2nc1N1CC[C@H](N)C1 [Compound 102] | 16%
Cc1cn2nc([C@@H]3CCCCN3C(=O)c3ccccc3[S+](C)[O-])cc2nc1N1CC[C@H](N)C1 (stereo partly shown) [Compound 103] | 100%
Cc1cn2nc([C@@H]3CCCCN3C(=O)c3ncc(Cl)cc3C(F)(F)F)cc2nc1N1CC[C@H](N)C1 [Compound 104] | 56%
Cc1cn2nc([C@@H]3CCCCN3C(=O)c3ncc(C(F)(F)F)cc3Cl)cc2nc1N1CC[C@H](N)C1 [Compound 105] | 31%
